Here are results for 5 compounds from ChEMBL document CHEMBL1158010, “New cytotoxic oxygenated fucosterols from the brown alga Turbinaria conoides” (1999).

Experiment [1] deals with P388. The experiment can be described thus: Cytotoxicity against mouse P388 cells after 3 days. The note with it: P388, 72 h, read-out: ED50 (the source's name).
Experiment [2] concerns KB. The experiment can be described thus: Cytotoxicity against human KB cells after 3 days by MTT assay. To be noted: 72 h, read-out: ED50 (the source's name). A general note: Formazan colour is commonly taken as a measure of viable cells.
Experiment [3] deals with A549. The experiment can be described thus: Cytotoxicity against human A549 cells after 6 days by MTT assay. The note with it: A549, 144 h, read-out: ED50 (the source's name).
The test system of experiment [4] is HT-29. The experiment can be described thus: Cytotoxicity against human HT-29 cells after 6 days by MTT assay. To be noted: HT-29, 144 h, read-out: ED50 (the source's name).

≈ marks a conversion by molar mass, not a printed value.

Take `C/C=C(\CC[C@@H](C)[C@H]1CC[C@H]2[C@@H]3CCC4=CC(=O)CC[C@]4(C)[C@H]3CC[C@]12C)C(C)C`: the EC50 in experiment [1], in experiment [2], in experiment [3] and in experiment [4] was more than 50 µg/mL throughout.

Consider `C/C=C(\CC[C@@H](C)[C@H]1CC[C@H]2[C@@H]3C[C@@H](O)C4=CC(=O)CC[C@]4(C)[C@H]3CC[C@]12C)C(C)C`, for which the EC50 in experiment [1] came out at 0.9 µg/mL (≈ 2.11 µM); in experiment [2], 4.6 µg/mL (≈ 10.8 µM); in experiment [3], 2.3 µg/mL (≈ 5.39 µM); in experiment [4] it was 1.2 µg/mL (≈ 2.81 µM).

For `C=CC(CC[C@@H](C)[C@H]1CC[C@H]2[C@@H]3CC(=O)C4=CC(=O)CC[C@]4(C)[C@H]3CC[C@]12C)(OO)C(C)C` (stereo not given in full), the EC50 amounted to 0.8 µg/mL (≈ 1.75 µM) in experiment [1], 4 µg/mL (≈ 8.76 µM) in experiment [2], 2.5 µg/mL (≈ 5.47 µM) in experiment [3] and 1.4 µg/mL (≈ 3.07 µM) in experiment [4].

As to `C=CC(CC[C@@H](C)[C@H]1CC[C@H]2[C@@H]3C[C@@H](O)C4=CC(=O)CC[C@]4(C)[C@H]3CC[C@]12C)(OO)C(C)C` (stereo not given in full), the EC50 amounted to 0.4 µg/mL (≈ 0.872 µM) in experiment [1], 1.8 µg/mL (≈ 3.92 µM) in experiment [2], 1.8 µg/mL (≈ 3.92 µM) in experiment [3] and 1.7 µg/mL (≈ 3.71 µM) in experiment [4].

In the case of `C/C=C(\CC[C@@H](C)[C@H]1CC[C@H]2[C@@H]3CC(=O)C4=CC(=O)CC[C@]4(C)[C@H]3CC[C@]12C)C(C)C`, the EC50 in experiment [1] came to 0.6 µg/mL (≈ 1.41 µM); in experiment [2] it was 5.9 µg/mL (≈ 13.9 µM); in experiment [3] it was 3.1 µg/mL (≈ 7.3 µM); in experiment [4] it was 0.4 µg/mL (≈ 0.942 µM).
